In PubChem BioAssay (NCI) one finds TGI and GI50 data, which are given here for 20 compounds.

Where “and” joins values, the source holds several entries; their conditions need not be identical. Equal entries are not always repeated.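 Grown in 96-well plates, cells were treated for 48 hours with each compound at five concentrations. Insufficient inhibition: endpoint recorded as highest concentration tested. GI50: concentration for 50% inhibition of growth. TGI: concentration producing complete growth inhibition.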

Assay in all cases: inhibition of tumour cell growth, NCI panel, 48 h
The test system of assay [1] is K-562 leukemia.
For assay [2], the system named is SF-295 CNS.
Assay [3] deals with UACC-257 melanoma.
Assay [4] relates to HCC-2998 colon.
The subject of assay [5] is SK-MEL-28 melanoma.
Assay [6] concerns HCT-15 colon.
Assay [7] relates to NCI-H23 lung.
Assay [8] deals with 786-0 renal.
In assay [9] the test system is SF-268 CNS.
Assay [10] has as its system KM12 colon.

On to `COc1cc(OC)c2nccc(NCCCN(C)C)c2c1[N+](=O)[O-]`, for which the TGI in [1], in assay [2], in assay [3], in assay [4], in assay [5] and in [6] was > 100 µM in each case. The TGI in assay [7], in assay [8], in [9] and in assay [10] was > 100 µM in each case.
Regarding `CCOc1ccc2c(c1)[n+]([O-])c(-c1ccc(Br)cc1)c(N)[n+]2[O-]`, the TGI in [1], in assay [2], in [3], in assay [4], in assay [5] and in [6] was > 100 µM in each case. Further, the TGI in assay [7] is 70.8 µM; in assay [8], > 100 µM; in assay [9], > 100 µM; in assay [10], > 100 µM.
On to `Cc1cc2cc3ccc(N(C)C)cc3nc2cc1N`, for which the GI50 in assay [1] was 0.418 µM; in assay [2], 0.273 µM; in assay [3] it was 1.12 µM; in assay [4], 0.33 µM; in [5], 1.69 µM; in assay [6], 1.4 µM. Also, the GI50 in assay [7] was 0.49 µM; in assay [8], 0.597 µM; in assay [9], 0.611 µM; in assay [10] it was 0.439 µM. For the same compound, the TGI was > 21 µM in assay [1]; 2.03 µM in assay [2]; 3.04 µM in assay [3]; 1.34 µM in assay [4]; 4.74 µM in [5]; 17.8 µM in assay [6]. Besides, the TGI came out at 4.42 µM in [7], 2.47 µM in [8], 2.32 µM in assay [9] and 2.18 µM in assay [10].
As to `Cn1nc(-c2ccc(Cl)cc2)nc2c(=O)n(C)c(=O)nc1-2`, the GI50 in assay [1] was 1.17 µM; in assay [2], 0.777 µM; in assay [3] it was 0.794 µM; in assay [4], 1.18 µM; in [5] it was 1.24 µM; in assay [6] it was 0.766 µM. Further, the GI50 was 1.18 µM in assay [7], 1.43 µM in [8], 1.8 µM in assay [9] and 1.35 µM in assay [10]. Moreover, the TGI turned out to be 3.22 µM in assay [1]; 1.81 µM in [2]; 1.54 µM in [3]; 3.83 µM in [4]; 3.13 µM in assay [5]; 1.53 µM in assay [6]. The TGI in assay [7] came to 3.16 µM; in assay [8] it was 9.65 µM; in assay [9] it was 6.58 µM; in [10] it was 5.5 µM.
For the compound `O=[N+]([O-])c1ccc(C2CC(c3ccccc3Cl)=Nc3ccccc3S2=O)cc1` (centres undefined), the TGI in [1] was determined as 4.57 µM; in assay [2], 15.3 µM; in [3] it was 48.3 µM; in [4], 6.85 µM; in [5] it was 13.8 µM; in assay [6] it was 5.3 µM. Further, the TGI in assay [7] stood at 11.7 µM; in [8] it was 3.31 µM; in assay [9], 30.5 µM; in assay [10], 9.97 µM.
In the case of `N[C@@H]1C(=O)N2C(C(=O)OC(c3ccccc3)c3ccccc3)=C(CCl)CS[C@H]12`, the GI50 in [1] is 15.4 µM; in assay [2], > 94.3 µM; in assay [3] it was > 100 µM; in assay [4] it was 43 µM; in [5], 22.4 µM; in assay [6], 37.9 µM. Also, the GI50 in assay [7] was 95.6 µM; in [8], 39.3 µM; in [9] it was 31.7 µM; in assay [10] it was 38.1 µM. Besides, the TGI in assay [1] was > 89.2 µM; in assay [2], > 100 µM; in [3] it was > 100 µM; in assay [4], > 100 µM; in [5], 53.8 µM; in assay [6] it was > 100 µM. For the same compound, the TGI in [7] is > 100 µM; in assay [8] it was 98.9 µM; in assay [9] it was 98.7 µM; in assay [10], > 100 µM.
For the compound `C[N+](C)(C)CC1CCC/C1=N/O` (centres undefined), the TGI was 44.6 µM in assay [1]; > 100 µM in assay [2]; > 100 µM in assay [3]; > 100 µM in [4]; > 100 µM in [5]; 38.8 µM in assay [6]. The TGI is > 100 µM in assay [7], 44.5 µM in assay [8], > 100 µM in [9] and > 100 µM in assay [10].
Turning to `Clc1ccc(-c2nnc(-c3cccc4ccccc34)o2)cc1Cl`, the TGI in assay [1], in assay [2], in assay [3], in assay [4], in [5] and in assay [6] was > 100 µM in each case. Besides, the TGI in [7], in [8], in assay [9] and in assay [10] was > 100 µM in each case.
Consider `O=C(NCCO)c1ccc([N+](=O)[O-])cc1`, for which the TGI in assay [1], in assay [2], in assay [3], in [4], in assay [5] and in [6] was > 100 µM in each case. Besides, the TGI in assay [7], in assay [8], in [9] and in assay [10] was > 100 µM throughout.
On to `Cc1nnc2c3nnc(C)n3c3ccccc3n12`, for which the TGI in assay [1], in assay [2], in [3], in assay [4], in assay [5] and in assay [6] was > 100 µM in each case. Besides, the TGI in assay [7], in assay [8], in assay [9] and in assay [10] was > 100 µM in each case.
Take `CCN(Cc1ccc(F)cc1)c1ccc(CO)c(C)c1`: the GI50 in assay [1] is 9.03 µM; in assay [2], 10.9 µM; in [3], 2.92 µM; in [4], 14.6 µM; in [5], 13.3 µM; in assay [6] it was 8.86 µM. In addition, the GI50 in [7] is 13.2 µM; in [8], 13 µM; in assay [9] it was 24.9 µM; in [10], 19.6 µM. For the same compound, the TGI in [1] was > 72.5 µM; in assay [2], 32.8 µM; in assay [3] it was 15 µM; in [4], 29.4 µM; in [5] it was 28.6 µM; in assay [6], 39.4 µM. The TGI is 37.1 µM in [7], 29.5 µM in assay [8], > 58.9 µM in assay [9] and 45.1 µM in [10].
For `Cn1c(=O)c(NC(=O)C(Cl)(Cl)Cl)nc2ccccc21`, the TGI in [1], in assay [2], in [3], in assay [4], in assay [5] and in assay [6] was > 100 µM in each case. In addition, the TGI in assay [7], in assay [8], in [9] and in [10] was > 100 µM each time.
For `COc1cccc(/C=N/NC(=S)NC2CC3CCC2C3)c1O` (centres undefined), the GI50 in assay [1] is 7.62 µM; in [2], 4.63 µM; in [3] it was 15.1 µM; in [4], 80.4 µM; in assay [5] it was 13.1 µM; in [6], 1.07 µM. The GI50 in assay [7] is 15.1 µM; in assay [8], 19.5 µM; in assay [9], 5.84 µM; in assay [10], 26.3 µM. Moreover, the TGI is > 100 µM in assay [1]; 18 µM in [2]; 38.7 µM in assay [3]; > 100 µM in assay [4]; 33.5 µM in [5]; > 100 µM in assay [6]. Moreover, the TGI in [7] was 45.4 µM; in assay [8] it was 39.6 µM; in assay [9], 21.5 µM; in assay [10], > 100 µM.
On to `O=C(/C=C/c1ccco1)c1ccc(NCc2nc3ccccc3[nH]2)cc1`, for which the TGI amounted to 40.9 µM in assay [1]; 31.1 µM in assay [2]; 23.2 µM in assay [3]; 27.7 µM in assay [4]; 33.8 µM in assay [5]; 30.3 µM in assay [6]. Also, the TGI stood at 27.5 µM in assay [7], 32.5 µM in assay [8], 46.4 µM in assay [9] and 22.6 µM in assay [10].
As to `COc1ccc(S(=O)(=O)NC2=NCCN2C(=S)SN2CCn3c2nsc3=S)cc1`, the GI50 in assay [1] was 28.1 µM; in assay [2], 20.8 µM; in assay [3], 16.8 µM; in [4] it was 21.4 µM; in assay [5], 21.1 µM; in assay [6], 20.8 µM. The GI50 in assay [7] is 22.9 µM; in assay [8] it was 20.2 µM; in assay [9], 18 µM; in assay [10], 18.7 µM. Besides, the TGI in assay [1] was > 100 µM; in [2], 53.6 µM; in [3], 50.2 µM; in assay [4], 37.9 µM; in [5] it was 65.1 µM; in assay [6] it was 58.9 µM. The TGI in assay [7] was found to be 55.7 µM; in assay [8] it was 35.4 µM; in assay [9] it was 37.8 µM; in assay [10], 37.7 µM.
On to `CC(=O)NC1C(OCc2ccccc2)OC(CO)C(O)C1OC(C)C(=O)N[C@@H](C)C(=O)N[C@H](CCC(=O)OCCNc1c2ccccc2nc2cccc([N+](=O)[O-])c12)C(N)=O` (some centres undefined), for which the TGI was > 0.1 µM in assay [1]; 0.0339 µM in [2]; 0.0201 µM in [3]; 0.00378 µM in [4]; 0.0118 µM in [5]; 0.00156 µM in assay [6]. Also, the TGI is 0.00545 µM in assay [7]; 0.00335 µM and 0.00671 µM in assay [8]; 0.0343 µM in assay [9]; 0.00538 µM in assay [10].
Regarding `CN(C)c1nnnn1-c1c(N)n(C)c(=O)n(C)c1=O`, the TGI in [1], in assay [2], in assay [3], in [4], in assay [5] and in assay [6] was > 100 µM throughout. Besides, the TGI in assay [7], in assay [8], in [9] and in [10] was > 100 µM each time.
Take `Oc1ccc(-c2nc3ccc4[nH]ncc4c3c3c2CCCC3)c(F)c1`: the GI50 in [1] is 2.71 µM; in assay [2], 3.81 µM; in [3], 1.84 µM; in [4], 4.25 µM; in [5], 2.74 µM; in [6] it was 2.26 µM. The GI50 in assay [7] was 3.15 µM; in assay [8] it was 2.5 µM; in assay [9], 3.27 µM; in assay [10] it was 0.362 µM. For the same compound, the TGI was found to be 21 µM in assay [1]; 14.3 µM in assay [2]; 5.34 µM in assay [3]; 14.5 µM in [4]; 12.4 µM in [5]; 11.3 µM in [6]. The TGI was determined as 14 µM in [7], 12.1 µM in assay [8], 14.7 µM in assay [9] and 13.2 µM in assay [10].
For `CCOC(=O)c1c(C)n(Cc2ccccc2)c2c1cc(O)c1[nH]c(Cc3ccccc3)nc12`, the GI50 in [1] was 0.679 µM; in [2], 11.3 µM; in [3], 16.2 µM; in assay [5], 24.3 µM; in assay [6] it was 4.66 µM; in assay [7], 9.19 µM. Further, the GI50 in assay [8] was 20.2 µM; in assay [9] it was 13.8 µM; in assay [10] it was 4.36 µM. The TGI is > 40 µM in assay [1]; 44.4 µM in assay [2]; > 70.2 µM in assay [3]; 2.04 µM in assay [4]; > 100 µM in assay [5]; > 100 µM in assay [6]. Moreover, the TGI was > 56 µM in [7], 72 µM in assay [8], > 100 µM in assay [9] and > 43.7 µM in [10].
`COc1cccc(-c2nn(-c3ccccc3)cc2-c2ccnc(NCCNC(=O)Nc3cccc(C(F)(F)F)c3)c2)c1`: the GI50 in [1] is 2.13 µM; in assay [2], 1.66 µM; in assay [3], 2.14 µM; in assay [4] it was 1.72 µM; in assay [5], 1.83 µM; in assay [6], 1.7 µM. The GI50 in assay [7] was 1.86 µM; in assay [8], 1.93 µM; in assay [9], 2 µM; in assay [10], 2.08 µM. The TGI in [1] came to 4.83 µM; in assay [2], 3.28 µM; in assay [3], 4.81 µM; in assay [4], 3.26 µM; in assay [5], 3.77 µM; in assay [6], 3.71 µM. Further, the TGI in assay [7] came out at 4.15 µM; in assay [8] it was 4.39 µM; in assay [9] it was 4.49 µM; in assay [10] it was 4.54 µM.
